Experimental data reported in US8952024B2, “Herbicidal pyrimidone derivatives” (E I du Pont de Nemours and Company, priority 2009, dated 2015).

Columns and labels:
Experiment in all cases: Test B pre-/postemergence plant response
Format in all cases: in vivo
[1] = system: yellow nutsedge (Cyperus esculentus); conditions: for Nutsedge, Yellow plant response rating (0 to 100 scale): 62 g ai/ha, 0 is no effect
How it was run: (§1)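 Visually scored on a 0 to 100 scale after 13 to 15 days in greenhouse versus controls. Treatments were preemergence on seeded loam/sand soil and postemergence on 1- to 4-leaf plants.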

[2] = system: wheat (Triticum aestivum); conditions: for Wheat plant response rating (0 to 100 scale): 62 g ai/ha, postemergence, 0 is no effect, 100 is complete control; for Plant response rating, Wheat: Postemergence
How it was run: as §1

[3] = system: green foxtail (Setaria viridis); conditions: for Foxtail, Green plant response rating (0 to 100 scale): 62 g ai/ha, 0 is no effect
How it was run: as §1

soybean (Glycine max) = conditions: for Soybean plant response rating (0 to 100 scale): 62 g ai/ha, postemergence, 0 is no effect, 100 is complete control; for Plant response rating, Soybean: Postemergence
How it was run: as §1

[4] = system: ragweed (common ragweed, Ambrosia elatior); conditions: for Ragweed plant response rating (0 to 100 scale): 62 g ai/ha, postemergence, 0 is no effect, 100 is complete control; for Plant response rating, Ragweed: Postemergence
How it was run: as §1

[5] = system: lambsquarters (Chenopodium album); conditions: for Lambsquarters plant response rating (0 to 100 scale): 62 g ai/ha, 0 is no effect
How it was run: as §1

[6] = system: large crabgrass (Digitaria sanguinalis); conditions: for Crabgrass, Large plant response rating (0 to 100 scale): 62 g ai/ha, 0 is no effect
How it was run: as §1

[7] = system: velvetleaf (Abutilon theophrasti); conditions: for Velvetleaf plant response rating (0 to 100 scale): 62 g ai/ha, postemergence, 0 is no effect, 100 is complete control; for Plant response rating, Velvetleaf: Postemergence
How it was run: as §1

[8] = system: johnsongrass (Sorghum halepense); conditions: for Johnsongrass plant response rating (0 to 100 scale): 62 g ai/ha, 0 is no effect
How it was run: as §1

kochia (Kochia scoparia) = conditions: for Kochia plant response rating (0 to 100 scale): 62 g ai/ha, 0 is no effect
How it was run: as §1

[9] = system: woolly cupgrass (Eriochloa villosa); conditions: for Cupgrass, Woolly plant response rating (0 to 100 scale): 62 g ai/ha, 0 is no effect
How it was run: as §1

[10] = system: bermudagrass (Cynodon dactylon); conditions: for Bermudagrass plant response rating (0 to 100 scale): 62 g ai/ha, 0 is no effect
How it was run: as §1

[11] = system: goosegrass (Eleusine indica); conditions: for Goosegrass plant response rating (0 to 100 scale): 62 g ai/ha, 0 is no effect
How it was run: as §1

[12] = postemergence, 100 is complete control, 13 to 15 days
[13] = Postemergence, 31 g ai/ha, 0 to 100 scale (0 no effect, 100 complete control)
[14] = Postemergence, 125 g ai/ha, scale 0 to 100 (0 no effect, 100 complete control)
[15] = Postemergence, 250 g ai/ha, scale 0 to 100 (0 no effect, 100 complete control), 13 to 15 days
[16] = 31 g ai/ha, 0 to 100 scale (0 no effect, 100 complete control)
[17] = 125 g ai/ha, scale 0 to 100 (0 no effect, 100 complete control)
[18] = 250 g ai/ha, scale 0 to 100 (0 no effect, 100 complete control), 13 to 15 days
[19] = 31 g ai/ha, postemergence, scale 0 to 100, 0 is no effect, 100 is complete control
[20] = Postemergence, 250 g ai/ha, scale 0 to 100 (0 no effect, 100 complete control)
[21] = 250 g ai/ha, scale 0 to 100 (0 no effect, 100 complete control)

COCCn1c(-c2cccc(Cl)c2)ncc(C(=O)C2=C(O)CCCC2=O)c1=O [Compound 147]
Nutsedge, Yellow plant response rating (0 to 100 scale) [1, 12]: 60
Plant response rating, Nutsedge, Yellow [1, 13]: 50
Plant response rating, Nutsedge, Yellow [1, 14]: 70
Plant response rating, Nutsedge, Yellow [1, 15]: 75
Wheat plant response rating (0 to 100 scale) ([2]; 13 to 15 days): 5
Plant response rating, Wheat [2, 16]: 0
Plant response rating, Wheat [2, 17]: 5
Plant response rating, Wheat [2, 18]: 10
Foxtail, Green plant response rating (0 to 100 scale) [3, 12]: 65
Plant response rating, Foxtail, Green [3, 13]: 40
Plant response rating, Foxtail, Green [3, 14]: 80
Plant response rating, Foxtail, Green [3, 15]: 90
Soybean plant response rating (0 to 100 scale) (soybean (Glycine max); 13 to 15 days): 60
Plant response rating, Soybean (soybean (Glycine max); [16]): 15
Plant response rating, Soybean (soybean (Glycine max); [17]): 65
Plant response rating, Soybean (soybean (Glycine max); [18]): 85
Ragweed plant response rating (0 to 100 scale) ([4]; 13 to 15 days): 75
Plant response rating, Ragweed [4, 16]: 20
Plant response rating, Ragweed [4, 17]: 90
Plant response rating, Ragweed [4, 18]: 98
Lambsquarters plant response rating (0 to 100 scale) [5, 12]: 95
Plant response rating, Lambsquarters [5, 13]: 85
Plant response rating, Lambsquarters [5, 14]: 98
Plant response rating, Lambsquarters [5, 15]: 100
Crabgrass, Large plant response rating (0 to 100 scale) [6, 12]: 75
Plant response rating, Crabgrass, Large [6, 13]: 60
Plant response rating, Crabgrass, Large [6, 14]: 85
Plant response rating, Crabgrass, Large [6, 15]: 90
Velvetleaf plant response rating (0 to 100 scale) ([7]; 13 to 15 days): 80
Plant response rating, Velvetleaf [7, 16]: 60
Plant response rating, Velvetleaf [7, 17]: 95
Plant response rating, Velvetleaf [7, 18]: 100
Johnsongrass plant response rating (0 to 100 scale) [8, 12]: 40
Plant response rating, Johnsongrass [8, 13]: 15
Plant response rating, Johnsongrass [8, 14]: 60
Plant response rating, Johnsongrass [8, 15]: 60
Kochia plant response rating (0 to 100 scale) (kochia (Kochia scoparia); [12]): 75
Plant response rating, Kochia (kochia (Kochia scoparia); [13]): 40
Plant response rating, Kochia (kochia (Kochia scoparia); [14]): 80
Plant response rating, Kochia (kochia (Kochia scoparia); [15]): 100
Cupgrass, Woolly plant response rating (0 to 100 scale) [9, 12]: 70
Plant response rating, Cupgrass, Woolly [9, 13]: 65
Plant response rating, Cupgrass, Woolly [9, 14]: 80
Plant response rating, Cupgrass, Woolly [9, 15]: 80
Bermudagrass plant response rating (0 to 100 scale) [10, 12]: 90
Plant response rating, Bermudagrass [10, 13]: 75
Plant response rating, Bermudagrass [10, 14]: 95
Plant response rating, Bermudagrass [10, 15]: 98
Goosegrass plant response rating (0 to 100 scale) [11, 12]: 70
Plant response rating, Goosegrass [11, 13]: 35
Plant response rating, Goosegrass [11, 14]: 80
Plant response rating, Goosegrass [11, 15]: 95

COCC(C)n1c(-c2ccccc2)ncc(C(=O)C2=C(O)CCCC2=O)c1=O (stereo not drawn) [Compound 107]
Plant response rating, Nutsedge, Yellow [1, 19]: 75
Nutsedge, Yellow plant response rating (0 to 100 scale) [1, 12]: 75
Plant response rating, Nutsedge, Yellow [1, 14]: 75
Plant response rating, Nutsedge, Yellow [1, 20]: 85
Wheat plant response rating (0 to 100 scale) ([2]; 13 to 15 days): 5
Plant response rating, Wheat [2, 17]: 5
Plant response rating, Foxtail, Green [3, 19]: 70
Foxtail, Green plant response rating (0 to 100 scale) [3, 12]: 75
Plant response rating, Foxtail, Green [3, 14]: 90
Plant response rating, Foxtail, Green [3, 20]: 98
Soybean plant response rating (0 to 100 scale) (soybean (Glycine max); 13 to 15 days): 98
Plant response rating, Soybean (soybean (Glycine max); [17]): 100
Plant response rating, Soybean (soybean (Glycine max); [21]): 100
Ragweed plant response rating (0 to 100 scale) ([4]; 13 to 15 days): 85
Plant response rating, Ragweed [4, 17]: 95
Plant response rating, Ragweed [4, 21]: 98
Plant response rating, Lambsquarters [5, 19]: 90
Lambsquarters plant response rating (0 to 100 scale) [5, 12]: 100
Plant response rating, Lambsquarters [5, 14]: 100
Plant response rating, Lambsquarters [5, 20]: 100
Plant response rating, Crabgrass, Large [6, 19]: 75
Crabgrass, Large plant response rating (0 to 100 scale) [6, 12]: 85
Plant response rating, Crabgrass, Large [6, 14]: 90
Plant response rating, Crabgrass, Large [6, 20]: 95
Velvetleaf plant response rating (0 to 100 scale) ([7]; 13 to 15 days): 100
Plant response rating, Velvetleaf [7, 17]: 100
Plant response rating, Velvetleaf [7, 21]: 100
Plant response rating, Johnsongrass [8, 19]: 60
Johnsongrass plant response rating (0 to 100 scale) [8, 12]: 70
Plant response rating, Johnsongrass [8, 14]: 70
Plant response rating, Johnsongrass [8, 20]: 90
Plant response rating, Kochia (kochia (Kochia scoparia); [19]): 98
Kochia plant response rating (0 to 100 scale) (kochia (Kochia scoparia); [12]): 98
Plant response rating, Kochia (kochia (Kochia scoparia); [14]): 100
Plant response rating, Kochia (kochia (Kochia scoparia); [20]): 100
Plant response rating, Cupgrass, Woolly [9, 19]: 65
Cupgrass, Woolly plant response rating (0 to 100 scale) [9, 12]: 65
Plant response rating, Cupgrass, Woolly [9, 14]: 75
Plant response rating, Cupgrass, Woolly [9, 20]: 80
Plant response rating, Bermudagrass [10, 19]: 75
Bermudagrass plant response rating (0 to 100 scale) [10, 12]: 80
Plant response rating, Bermudagrass [10, 14]: 95
Plant response rating, Bermudagrass [10, 20]: 98
Plant response rating, Goosegrass [11, 19]: 75
Goosegrass plant response rating (0 to 100 scale) [11, 12]: 75
Plant response rating, Goosegrass [11, 14]: 75
Plant response rating, Goosegrass [11, 20]: 85

COCCn1c(-c2cccc(F)c2)ncc(C(=O)C2=C(O)CCCC2=O)c1=O [Compound 123]
Nutsedge, Yellow plant response rating (0 to 100 scale) [1, 12]: 75
Plant response rating, Nutsedge, Yellow [1, 13]: 65
Plant response rating, Nutsedge, Yellow [1, 14]: 75
Plant response rating, Nutsedge, Yellow [1, 20]: 80
Wheat plant response rating (0 to 100 scale) ([2]; 13 to 15 days): 15
Plant response rating, Wheat [2, 16]: 10
Plant response rating, Wheat [2, 17]: 15
Foxtail, Green plant response rating (0 to 100 scale) [3, 12]: 60
Plant response rating, Foxtail, Green [3, 13]: 50
Plant response rating, Foxtail, Green [3, 14]: 85
Plant response rating, Foxtail, Green [3, 20]: 90
Soybean plant response rating (0 to 100 scale) (soybean (Glycine max); 13 to 15 days): 75
Plant response rating, Soybean (soybean (Glycine max); [16]): 60
Plant response rating, Soybean (soybean (Glycine max); [17]): 85
Plant response rating, Soybean (soybean (Glycine max); [21]): 90
Ragweed plant response rating (0 to 100 scale) ([4]; 13 to 15 days): 85
Plant response rating, Ragweed [4, 16]: 70
Plant response rating, Ragweed [4, 17]: 95
Plant response rating, Ragweed [4, 21]: 98
Lambsquarters plant response rating (0 to 100 scale) [5, 12]: 95
Plant response rating, Lambsquarters [5, 13]: 80
Plant response rating, Lambsquarters [5, 14]: 98
Plant response rating, Lambsquarters [5, 20]: 98
Crabgrass, Large plant response rating (0 to 100 scale) [6, 12]: 80
Plant response rating, Crabgrass, Large [6, 13]: 70
Plant response rating, Crabgrass, Large [6, 14]: 85
Plant response rating, Crabgrass, Large [6, 20]: 90
Velvetleaf plant response rating (0 to 100 scale) ([7]; 13 to 15 days): 90
Plant response rating, Velvetleaf [7, 16]: 80
Plant response rating, Velvetleaf [7, 17]: 95
Plant response rating, Velvetleaf [7, 21]: 100
Johnsongrass plant response rating (0 to 100 scale) [8, 12]: 65
Plant response rating, Johnsongrass [8, 13]: 35
Plant response rating, Johnsongrass [8, 14]: 75
Plant response rating, Johnsongrass [8, 20]: 90
Kochia plant response rating (0 to 100 scale) (kochia (Kochia scoparia); [12]): 65
Plant response rating, Kochia (kochia (Kochia scoparia); [13]): 60
Plant response rating, Kochia (kochia (Kochia scoparia); [14]): 80
Plant response rating, Kochia (kochia (Kochia scoparia); [20]): 100
Cupgrass, Woolly plant response rating (0 to 100 scale) [9, 12]: 45
Plant response rating, Cupgrass, Woolly [9, 13]: 25
Plant response rating, Cupgrass, Woolly [9, 14]: 75
Plant response rating, Cupgrass, Woolly [9, 20]: 90
Bermudagrass plant response rating (0 to 100 scale) [10, 12]: 85
Plant response rating, Bermudagrass [10, 13]: 80
Plant response rating, Bermudagrass [10, 14]: 90
Plant response rating, Bermudagrass [10, 20]: 98
Goosegrass plant response rating (0 to 100 scale) [11, 12]: 65
Plant response rating, Goosegrass [11, 13]: 65
Plant response rating, Goosegrass [11, 14]: 80
Plant response rating, Goosegrass [11, 20]: 85
